{"source": "patent US20150148551A1", "about": "“GENISTEIN FOR REDUCING LEVELS OF STORAGE COMPOUNDS IN THE TREATMENT AND/OR PREVENTION OF LYSOSOMAL STORAGE DISEASES (LSDS)” (3G THERAPEUTICS, INC., priority 2012, published 2015)", "assay_type_in_all_cases": "cell-based, human", "key": {"MANBA": {"test_system": "MANBA", "assay": "DNA microarray, MANBA expression in fibroblasts exposed to genistein", "conditions": "for MANBA fold change Average: 48 h vs DMSO", "description": "(§1) The experiments were conducted to characterise the transcriptomic profile of human fibroblast cells exposed to genistein, and in particular to determine the expression of genes encoding lysosomal enzymes involved in metabolism (i.e. synthesis and degradation) of organic substances. The absence or deficiency of these enzymes' activity is responsible for occurrence of various lysosomal storage diseases (LSD) (including MPS). The tested hypothesis assumed that genistein influences the expression of many genes, among which there are genes coding for enzymes required in metabolism of compounds, which are pathologically stored in LSD. The results provide important information regarding genistein action on the molecular level within the range of gene expression modulation by this substance. The experiment was conducted in biological quintuplicates. Human dermal fibroblasts (HDFa) were exposed in vitro for 1, 24 or 48 hours to: 30, 60 or 100 μM of genistein; 0.05% DMSO (K1); or were untreated (control cells) (K2), and total RNA was isolated and analysed.\n(§2) Fibroblast cells were grown in Dulbecco (DMEM) medium supplemented with 10% fetal bovine serum (FBS) with the addition of 1% antibiotics and anti-fungal agents at 37° C. in humidified atmosphere of 5% CO2, until the required confluency was obtained.\n(§3) To determine the effect of tested compound on the transcriptom of the fibroblast cells, the growth medium was replaced with fresh medium, either non-supplemented (0.05% DMSO), or containing genistein (30, 60 or 100 μM, in 0.05% DMSO). The exposure was done for 1, 24 or 48 hours.\n(§4) Total RNA was isolated from fibroblasts using High Pure RNA Isolation Kit according to the protocol and then it was quantitatively evaluated using Quant-It™ RiboGreen® Assay Kit.\n(§5) Biotinylated cRNA was prepared using Ambion Total PrepAmp Kit for Illumina arrays.\n(§6) Standard hybridization and quantitative image analysis procedures—Illumina hybridization protocol and Illumina scanning protocol, were used.\n(§7) Processing of the results was done during data definition, including: background correction (using background subtraction method), normalization (using quantile normalization algorithm with Illumina GenomeStudio software package: gene expression module version 1.9.0) and summarization (using method, which sums the values of signal intensities from a set of probes)."}, "SUMF1": {"test_system": "SUMF1", "assay": "DNA microarray, SUMF1 expression in fibroblasts exposed to genistein", "conditions": "for SUMF1 fold change Average: 48 h vs DMSO", "description": "as §1, §2, §3, §4, §5, §6, §7"}, "TPP1": {"test_system": "TPP1", "assay": "DNA microarray, TPP1 expression in fibroblasts exposed to genistein", "conditions": "for TPP1 fold change Average: 48 h vs DMSO", "description": "as §1, §2, §3, §4, §5, §6, §7"}, "IDUA": {"test_system": "IDUA", "assay": "DNA microarray, IDUA expression in fibroblasts exposed to genistein", "conditions": "for IDUA fold change Average: 48 h vs DMSO", "description": "as §1, §2, §3, §4, §5, §6, §7"}, "GAPDH": {"test_system": "GAPDH", "assay": "DNA microarray, GAPDH reference gene expression in fibroblasts exposed to genistein", "description": "as §1, §2, §3, §4, §5, §6, §7"}, "GBA": {"test_system": "GBA", "assay": "DNA microarray, GBA expression in fibroblasts exposed to genistein", "conditions": "for GBA fold change Average: 48 h vs DMSO", "description": "as §1, §2, §3, §4, §5, §6, §7"}, "ABCA9": {"test_system": "ABCA9", "assay": "DNA microarray, ABCA9 expression in fibroblasts exposed to genistein", "conditions": "for ABCA9 fold change Average: 48 h vs DMSO", "description": "as §1, §2, §3, §4, §5, §6, §7"}, "CTNS": {"test_system": "CTNS", "assay": "DNA microarray, CTNS expression in fibroblasts exposed to genistein", "conditions": "for CTNS fold change Average: 48 h vs DMSO", "description": "as §1, §2, §3, §4, §5, §6, §7"}}, "data": [{"smiles": "O=c1c(-c2ccc(O)cc2)coc2cc(O)cc(O)c12", "note": "[genistein, 4′,5,7-trihydroxy-3-phenylchromen-4-one]", "values": [{"measurement": "MANBA fold change Average 1h30/1hK1", "setting": "MANBA; 30 μM, 1 h vs 0.05% DMSO", "value": 1.0095, "unit": "fold change"}, {"measurement": "MANBA fold change Average", "setting": "MANBA; 30 μM", "value": 1.6385, "unit": "fold change"}, {"measurement": "MANBA fold change Average 1h60/1hK1", "setting": "MANBA; 60 μM, 1 h vs 0.05% DMSO", "value": 1.041, "unit": "fold change"}, {"measurement": "MANBA fold change Average", "setting": "MANBA; 60 μM", "value": 2.173, "unit": "fold change"}, {"measurement": "MANBA fold change Average 1h100/1hK1", "setting": "MANBA; 100 μM, 1 h vs 0.05% DMSO", "value": 0.9489, "unit": "fold change"}, {"measurement": "MANBA fold change Average", "setting": "MANBA; 100 μM", "value": 2.387, "unit": "fold change"}, {"measurement": "SUMF1 fold change Average 1h30/1hK1", "setting": "SUMF1; 30 μM, 1 h vs 0.05% DMSO", "value": 1.1314, "unit": "fold change"}, {"measurement": "SUMF1 fold change Average", "setting": "SUMF1; 30 μM", "value": 1.2364, "unit": "fold change"}, {"measurement": "SUMF1 fold change Average 1h60/1hK1", "setting": "SUMF1; 60 μM, 1 h vs 0.05% DMSO", "value": 1.158, "unit": "fold change"}, {"measurement": "SUMF1 fold change Average", "setting": "SUMF1; 60 μM", "value": 1.849, "unit": "fold change"}, {"measurement": "SUMF1 fold change Average 1h100/1hK1", "setting": "SUMF1; 100 μM, 1 h vs 0.05% DMSO", "value": 1.095, "unit": "fold change"}, {"measurement": "SUMF1 fold change Average", "setting": "SUMF1; 100 μM", "value": 1.705, "unit": "fold change"}, {"measurement": "TPP1 fold change Average 1h30/1hK1", "setting": "TPP1; 30 μM, 1 h vs 0.05% DMSO", "value": 1.0655, "unit": "fold change"}, {"measurement": "TPP1 fold change Average", "setting": "TPP1; 30 μM", "value": 1.2672, "unit": "fold change"}, {"measurement": "TPP1 fold change Average 1h60/1hK1", "setting": "TPP1; 60 μM, 1 h vs 0.05% DMSO", "value": 1.001, "unit": "fold change"}, {"measurement": "TPP1 fold change Average", "setting": "TPP1; 60 μM", "value": 1.505, "unit": "fold change"}, {"measurement": "TPP1 fold change Average 1h100/1hK1", "setting": "TPP1; 100 μM, 1 h vs 0.05% DMSO", "value": 1.031, "unit": "fold change"}, {"measurement": "TPP1 fold change Average", "setting": "TPP1; 100 μM", "value": 1.603, "unit": "fold change"}, {"measurement": "IDUA fold change Average 1h30/1hK1", "setting": "IDUA; 30 μM, 1 h vs 0.05% DMSO", "value": 0.8853, "unit": "fold change"}, {"measurement": "IDUA fold change Average", "setting": "IDUA; 30 μM", "value": 1.1407, "unit": "fold change"}, {"measurement": "IDUA fold change Average 1h60/1hK1", "setting": "IDUA; 60 μM, 1 h vs 0.05% DMSO", "value": 0.9788, "unit": "fold change"}, {"measurement": "IDUA fold change Average", "setting": "IDUA; 60 μM", "value": 1.212, "unit": "fold change"}, {"measurement": "IDUA fold change Average 1h100/1hK1", "setting": "IDUA; 100 μM, 1 h vs 0.05% DMSO", "value": 0.9034, "unit": "fold change"}, {"measurement": "IDUA fold change Average", "setting": "IDUA; 100 μM", "value": 1.309, "unit": "fold change"}, {"measurement": "GAPDH fold change Average 1h30/1hK1", "setting": "GAPDH; 30 μM, 1 h vs 0.05% DMSO", "value": 0.9592, "unit": "fold change"}, {"measurement": "GAPDH fold change Average 24h30/24hK1", "setting": "GAPDH; 30 μM, 24 h vs 0.05% DMSO", "value": 0.93, "unit": "fold change"}, {"measurement": "GAPDH fold change Average 48h30/48hK1", "setting": "GAPDH; 30 μM, 48 h vs 0.05% DMSO", "value": 0.9412, "unit": "fold change"}, {"measurement": "GAPDH fold change Average 1h60/1hK1", "setting": "GAPDH; 60 μM, 1 h vs 0.05% DMSO", "value": 0.9817, "unit": "fold change"}, {"measurement": "GAPDH fold change Average 24h60/24hK1", "setting": "GAPDH; 60 μM, 24 h vs 0.05% DMSO", "value": 0.8905, "unit": "fold change"}, {"measurement": "GAPDH fold change Average 48h60/48hK1", "setting": "GAPDH; 60 μM, 48 h vs 0.05% DMSO", "value": 0.8088, "unit": "fold change"}, {"measurement": "GAPDH fold change Average 1h100/1hK1", "setting": "GAPDH; 100 μM, 1 h vs 0.05% DMSO", "value": 0.9385, "unit": "fold change"}, {"measurement": "GAPDH fold change Average 24h100/24hK1", "setting": "GAPDH; 100 μM, 24 h vs 0.05% DMSO", "value": 0.9556, "unit": "fold change"}, {"measurement": "GAPDH fold change Average 48h100/48hK1", "setting": "GAPDH; 100 μM, 48 h vs 0.05% DMSO", "value": 0.8652, "unit": "fold change"}, {"measurement": "GBA fold change Average 1h30/1hK1", "setting": "GBA; 30 μM, 1 h vs 0.05% DMSO", "value": 0.9138, "unit": "fold change"}, {"measurement": "GBA fold change Average", "setting": "GBA; 30 μM", "value": 1.257, "unit": "fold change"}, {"measurement": "GBA fold change Average 1h60/1hK1", "setting": "GBA; 60 μM, 1 h vs 0.05% DMSO", "value": 1.033, "unit": "fold change"}, {"measurement": "GBA fold change Average", "setting": "GBA; 60 μM", "value": 1.467, "unit": "fold change"}, {"measurement": "GBA fold change Average 1h100/1hK1", "setting": "GBA; 100 μM, 1 h vs 0.05% DMSO", "value": 0.9469, "unit": "fold change"}, {"measurement": "GBA fold change Average", "setting": "GBA; 100 μM", "value": 1.606, "unit": "fold change"}, {"measurement": "ABCA9 fold change Average 1h30/1hK1", "setting": "ABCA9; 30 μM, 1 h vs 0.05% DMSO", "value": 1.0096, "unit": "fold change"}, {"measurement": "ABCA9 fold change Average", "setting": "ABCA9; 30 μM", "value": 1.3825, "unit": "fold change"}, {"measurement": "ABCA9 fold change Average 1h60/1hK1", "setting": "ABCA9; 60 μM, 1 h vs 0.05% DMSO", "value": 1.129, "unit": "fold change"}, {"measurement": "ABCA9 fold change Average 1h100/1hK1", "setting": "ABCA9; 100 μM, 1 h vs 0.05% DMSO", "value": 0.9831, "unit": "fold change"}, {"measurement": "ABCA9 fold change Average", "setting": "ABCA9; 100 μM", "value": 1.635, "unit": "fold change"}, {"measurement": "CTNS fold change Average 1h30/1hK1", "setting": "CTNS; 30 μM, 1 h vs 0.05% DMSO", "value": 1.0024, "unit": "fold change"}, {"measurement": "CTNS fold change Average", "setting": "CTNS; 30 μM", "value": 1.5216, "unit": "fold change"}, {"measurement": "CTNS fold change Average 1h60/1hK1", "setting": "CTNS; 60 μM, 1 h vs 0.05% DMSO", "value": 0.7997, "unit": "fold change"}, {"measurement": "CTNS fold change Average", "setting": "CTNS; 60 μM", "value": 1.577, "unit": "fold change"}]}]}
